Where a SMILES comes first, the peptide text is derived from it. Bridges are numbered along the chain shown (N, C = ends). [ ]: non-standard residue; d: D form. Nle = CCCC[C@H](N)C(=O)O; Dap = NC[C@H](N)C(=O)O

This note sets out measurements from US7582610B2, “Melanocortin receptor templates, peptides and use thereof” (priority 2003, dated 2009).

The target of one experiment is mMC4R (Mus musculus, UniProt P56450). Nature of the experiment: Functional bioassay, CRE/β-galactosidase reporter in HEK-293 cells stably expressing mMC4R. The following applies: for pharmacology in words at mMC4R: slight agonist = some stimulatory response at 100 μM, not enough to determine an EC50.
mMC4R, sequence (P56450 whole entry): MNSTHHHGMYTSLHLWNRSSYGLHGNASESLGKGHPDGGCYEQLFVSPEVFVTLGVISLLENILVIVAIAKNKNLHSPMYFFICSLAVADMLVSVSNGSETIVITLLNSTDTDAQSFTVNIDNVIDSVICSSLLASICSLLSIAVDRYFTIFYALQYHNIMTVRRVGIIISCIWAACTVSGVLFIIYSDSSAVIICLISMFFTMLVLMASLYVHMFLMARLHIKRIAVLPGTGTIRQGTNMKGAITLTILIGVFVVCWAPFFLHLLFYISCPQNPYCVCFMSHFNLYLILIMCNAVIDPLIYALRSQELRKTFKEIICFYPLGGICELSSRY
In the next experiment the target is mMC3R (Mus musculus, UniProt P33033). Nature of the experiment: Functional bioassay, CRE/β-galactosidase reporter in HEK-293 cells stably expressing mMC3R. The following applies: for pharmacology in words at mMC3R: slight agonist = some stimulatory response at 100 μM, not enough to determine an EC50.
mMC3R, sequence (P33033 whole entry): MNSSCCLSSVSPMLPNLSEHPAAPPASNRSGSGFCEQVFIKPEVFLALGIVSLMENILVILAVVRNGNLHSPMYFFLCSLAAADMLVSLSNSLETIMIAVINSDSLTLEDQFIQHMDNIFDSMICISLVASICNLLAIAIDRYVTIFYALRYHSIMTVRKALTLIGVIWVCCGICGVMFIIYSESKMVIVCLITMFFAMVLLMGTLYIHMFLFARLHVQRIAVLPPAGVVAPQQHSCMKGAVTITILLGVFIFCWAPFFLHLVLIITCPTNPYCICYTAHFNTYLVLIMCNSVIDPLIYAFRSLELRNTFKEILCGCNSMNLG
The next experiment addresses mMC1R (Mus musculus, UniProt Q01727). Nature of the experiment: Functional bioassay, CRE/β-galactosidase reporter in HEK-293 cells stably expressing mMC1R.
The target of the next experiment is mMC5R (Mus musculus, UniProt P41149). Nature of the experiment: Functional bioassay, CRE/β-galactosidase reporter in HEK-293 cells stably expressing mMC5R. The following applies: for pharmacology in words at mMC5R: slight agonist = some stimulatory response at 100 μM, not enough to determine an EC50.
mMC5R, sequence (P41149 whole entry): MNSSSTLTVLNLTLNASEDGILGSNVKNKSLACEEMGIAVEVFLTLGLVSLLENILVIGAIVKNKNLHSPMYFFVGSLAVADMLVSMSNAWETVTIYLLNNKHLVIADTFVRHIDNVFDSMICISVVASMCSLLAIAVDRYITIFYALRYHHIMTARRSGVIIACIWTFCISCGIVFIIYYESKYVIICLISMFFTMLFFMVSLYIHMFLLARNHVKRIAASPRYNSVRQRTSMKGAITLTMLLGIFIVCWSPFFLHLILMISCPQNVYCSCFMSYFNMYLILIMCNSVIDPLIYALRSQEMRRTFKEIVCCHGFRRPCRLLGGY

mMC1R, sequence (Q01727 whole entry): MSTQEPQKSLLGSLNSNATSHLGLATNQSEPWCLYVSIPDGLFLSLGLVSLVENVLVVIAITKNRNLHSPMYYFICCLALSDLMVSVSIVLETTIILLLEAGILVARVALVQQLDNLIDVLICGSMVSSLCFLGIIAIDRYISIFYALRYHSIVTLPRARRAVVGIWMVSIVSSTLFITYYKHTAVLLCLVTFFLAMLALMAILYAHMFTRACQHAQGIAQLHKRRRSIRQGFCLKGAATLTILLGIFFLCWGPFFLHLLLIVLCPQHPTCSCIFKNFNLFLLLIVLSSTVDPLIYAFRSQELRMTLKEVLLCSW
Method for mMC1R: (§1) 5,000 to 15,000 post transfection cells were plated into 96 well Primera plates (Falcon) and incubated overnight. […] The assay media was aspirated and 50 μL of lysis buffer (250 mM Tris-HCl pH=8.0 and 0.1% Triton X-100) was added. The plates were stored at −80° overnight.
(§2) The plates containing the cell lysates were thawed the following day. Aliquots of 10 μL were taken from each well and transferred to another 96-well plate for relative protein determination. To the cell lysate plates, 40 μL phosphate-buffered saline with 0.5% BSA was added to each well. Subsequently, 150 μL substrate buffer (60 mM sodium phosphate, 1 mM MgCl2, 10 mM KCl, 5 mM β-mercaptoethanol, 200 mg/100 mL ONPG) was added to each well and the plates were incubated at 37°.
(§3) The sample absorbance, OD405, was measured using a 96 well plate reader (Molecular Devices). The relative protein was determined by adding 200 μL 1:5 dilution Bio Rad G250 protein dye:water to the 10 μL cell lysate sample taken previously, and the OD595 was measured on a 96 well plate reader (Molecular Devices). Data points were normalized both to the relative protein content and non-receptor dependent forskolin stimulation.
(§4) For data analysis, EC50 and pA2 values represent the mean of duplicate experiments performed in triplet, quadruplet or more independent experiments.
Method for mMC3R: as §1, §2, §3, §4
Method for mMC4R: as §1, §2, §3, §4
Method for mMC5R: as §1, §2, §3, §4

Regarding `C[C@@H]1NC(=O)[C@H](CC(N)=O)NC(=O)[C@@H](Cc2ccccc2)NC(=O)[C@H](Cc2ccccc2)NC(=O)[C@H](CCCNC(=N)N)NC(=O)[C@@H](NC(=O)[C@@H](N)Cc2ccc(O)cc2)CSSC[C@@H](C(=O)N[C@@H](Cc2ccc(O)cc2)C(N)=O)NC(=O)[C@H](Cc2ccccc2)NC1=O` [SEQ ID NO: 1, Tyr-c[Cys-Arg-Phe-DPhe-Asn-Ala-Phe-Cys]-Tyr] (H-YCRF[dF]NAFCY-NH2; disulfide 2-9), on mMC4R, the Kb came to 794 nM and the “pharmacology in words at mMC4R” value was “Partial agonist”. Also, on mMC3R, the EC50 (commonly the midpoint of the concentration-response curve) is > 100000 nM and the “pharmacology in words at mMC3R” value is “Slight Agonist”.

As for `C[C@@H]1NC(=O)[C@H](C)NC(=O)[C@@H](NC(=O)[C@@H](N)Cc2ccc(O)cc2)CC(=O)NC[C@@H](C(=O)N[C@@H](Cc2ccc(O)cc2)C(N)=O)NC(=O)[C@H](Cc2ccccc2)NC(=O)[C@H](C)NC(=O)[C@H](CC(N)=O)NC(=O)[C@H](C)NC1=O` [SEQ ID NO: 2, Tyr-c[Asp-Ala-Ala-Ala-Asn-Ala-Phe-Dpr]-Tyr] (H-YDAAANAF[Dap]Y-NH2; lactam 2-9), the EC50 at mMC4R, on mMC3R, on mMC1R and on mMC5R was > 100000 nM throughout.

Turning to `C[C@@H]1NC(=O)[C@H](CC(N)=O)NC(=O)[C@H](Cc2ccccc2)NC(=O)[C@H](Cc2ccccc2)NC(=O)[C@H](CCCNC(=N)N)NC(=O)[C@@H](NC(=O)[C@@H](N)Cc2ccc(O)cc2)CC(=O)NC[C@@H](C(=O)N[C@@H](Cc2ccc(O)cc2)C(N)=O)NC(=O)[C@H](Cc2ccccc2)NC1=O` [SEQ ID NO: 3, Tyr-c[Asp-Arg-Phe-Phe-Asn-Ala-Phe-Dpr]-Tyr], the Kb on mMC4R stood at 1260 nM; on mMC3R, 2000 nM. In addition, on mMC4R (compared with hAGRP(109-118)), the “decrease in antagonist potency at mMC4R” value amounted to 8 fold. For the same molecule, at mMC5R, the EC50 is > 100000 nM.

For `C[C@@H]1NC(=O)[C@H](CC(N)=O)NC(=O)[C@H](Cc2ccccc2)NC(=O)[C@H](CCCNC(=N)N)NC(=O)[C@H](Cc2c[nH]c3ccccc23)NC(=O)[C@@H](NC(=O)[C@@H](N)Cc2ccc(O)cc2)CC(=O)NC[C@@H](C(=O)N[C@@H](Cc2ccc(O)cc2)C(N)=O)NC(=O)[C@H](Cc2ccccc2)NC1=O` [SEQ ID NO: 4, Tyr-c[Asp-Trp-Arg-Phe-Asn-AIa-Phe-Dpr]-Tyr] (H-YDWRFNAF[Dap]Y-NH2; lactam 2-9), at mMC4R, the “pharmacology in words at mMC4R” value is reported as “Partial agonist”. Also, the EC50 on mMC3R and on mMC5R was > 100000 nM throughout.

For `C[C@@H]1NC(=O)[C@H](CC(N)=O)NC(=O)[C@@H](Cc2ccccc2)NC(=O)[C@H](CCCNC(=N)N)NC(=O)[C@H](Cc2c[nH]c3ccccc23)NC(=O)[C@@H](NC(=O)[C@@H](N)Cc2ccc(O)cc2)CC(=O)NC[C@@H](C(=O)N[C@@H](Cc2ccc(O)cc2)C(N)=O)NC(=O)[C@H](Cc2ccccc2)NC1=O` [SEQ ID NO: 5, Tyr-c[Asp-Trp-Arg-DPhe-Asn-Ala-Phe-Dpr]-Tyr] (H-YDWR[dF]NAF[Dap]Y-NH2; lactam 2-9), at mMC3R, the “pharmacology in words at mMC3R” value is “Slight Agonist”.

For `C[C@@H]1NC(=O)[C@H](CC(N)=O)NC(=O)[C@H](Cc2c[nH]c3ccccc23)NC(=O)[C@H](CCCNC(=N)N)NC(=O)[C@H](Cc2ccccc2)NC(=O)[C@@H](NC(=O)[C@@H](N)Cc2ccc(O)cc2)CC(=O)NC[C@@H](C(=O)N[C@@H](Cc2ccc(O)cc2)C(N)=O)NC(=O)[C@H](Cc2ccccc2)NC1=O` [SEQ ID NO: 6, Tyr-c[Asp-Phe-Arg-Trp-Asn-Ala-Phe-Dpr]-Tyr] (H-YDFRWNAF[Dap]Y-NH2; lactam 2-9), the “pharmacology in words at mMC3R” value at mMC3R was “Slight agonist”.

`CCCC[C@H](NC(=O)[C@H](CO)NC(=O)[C@H](Cc1ccc(O)cc1)NC(=O)[C@H](CO)NC(C)=O)C(=O)N[C@@H](Cc1ccc(O)cc1)C(=O)N[C@H]1CC(=O)NC[C@@H](C(=O)N[C@@H](Cc2ccc(O)cc2)C(=O)N[C@@H](CCCCN)C(=O)N2CCC[C@H]2C(=O)N[C@H](C(N)=O)C(C)C)NC(=O)[C@H](Cc2ccccc2)NC(=O)[C@H](C)NC(=O)[C@H](CC(N)=O)NC(=O)[C@H](Cc2ccccc2)NC(=O)[C@H](Cc2ccccc2)NC(=O)[C@H](CCCNC(=N)N)NC1=O` [SEQ ID NO: 11, Ac-Ser-Tyr-Ser-Nle-Tyr-c[Asp-Arg-Phe-Phe-Asn-Ala-Phe-Dpr]-Tyr-Lys-Pro-Val] (Ac-SYS[Nle]YDRFFNAF[Dap]YKPV-NH2; lactam 6-13): the Kb at mMC4R and at mMC3R was 631 nM each time. Also, on mMC5R, the EC50 was > 100000 nM.

`CCCC[C@H](NC(=O)[C@H](CO)NC(=O)[C@H](Cc1ccc(O)cc1)NC(=O)[C@H](CO)NC(C)=O)C(=O)N[C@@H](CCC(=O)O)C(=O)N[C@@H](Cc1c[nH]cn1)C(=O)N[C@@H](CCCNC(=N)N)C(=O)N[C@@H](Cc1ccccc1)C(=O)N[C@H](Cc1ccccc1)C(=O)NCC(=O)N[C@@H](CCCCN)C(=O)N1CCC[C@H]1C(=O)N[C@H](C(N)=O)C(C)C` [SEQ ID NO: 18, Ac-Ser-Tyr-Ser-Nle-Glu-His-Arg-Phe-DPhe-Gly-Lys-Pro-Val] (Ac-SYS[Nle]EHRF[dF]GKPV-NH2): the half-maximal effective concentration (EC50) on mMC4R and on mMC3R was > 100000 nM throughout. In addition, the “pharmacology in words at mMC5R” value on mMC5R was “Slight agonist”.

As to `CCCC[C@H](NC(C)=O)C(=O)N[C@H]1CC(=O)NCCCC[C@@H](C(N)=O)NC(=O)[C@@H](Cc2ccccc2)NC(=O)[C@H](Cc2ccccc2)NC(=O)[C@H](CCCNC(=N)N)NC(=O)[C@H](Cc2c[nH]cn2)NC1=O` [SEQ ID NO: 23, Ac-Nle-c[Asp-His-Arg-Phe-DPhe-Lys]] (Ac-[Nle]DHRF[dF]K-NH2; lactam 2-7), the EC50 at mMC4R was > 100000 nM. For the same molecule, the “pharmacology in words at mMC3R” value at mMC3R is listed as “Slight agonist”. The “pharmacology in words at mMC5R” value at mMC5R is on record as “Slight agonist”.

Regarding `C[C@@H]1NC(=O)[C@H](CC(N)=O)NC(=O)[C@H](Cc2c[nH]c3ccccc23)NC(=O)[C@H](CCCNC(=N)N)NC(=O)[C@H](C)NC(=O)[C@H](Cc2c[nH]cn2)NC(=O)[C@@H](NC(=O)[C@@H](N)Cc2ccc(O)cc2)CC(=O)NC[C@@H](C(=O)N[C@@H](Cc2ccc(O)cc2)C(N)=O)NC(=O)[C@H](Cc2ccccc2)NC1=O` [SEQ ID NO: 25], the “pharmacology in words at mMC3R” value on mMC3R is recorded as “Partial agonist”.

For `C[C@@H]1NC(=O)[C@H](CC(N)=O)NC(=O)[C@H](Cc2c[nH]c3ccccc23)NC(=O)[C@H](CCCNC(=N)N)NC(=O)[C@@H](Cc2ccccc2)NC(=O)[C@@H]2CCCN2C(=O)[C@@H](NC(=O)[C@@H](N)Cc2ccc(O)cc2)CC(=O)NC[C@@H](C(=O)N[C@@H](Cc2ccc(O)cc2)C(N)=O)NC(=O)[C@H](Cc2ccccc2)NC1=O` [SEQ ID NO: 28, Tyr-c[Asp-Pro-DPhe-Arg-Trp-Asn-Ala-Phe-Dpr]-Tyr] (H-YDP[dF]RWNAF[Dap]Y-NH2; lactam 2-10), on mMC3R, the Kb came out at 63.1 nM and the “pharmacology in words at mMC3R” value was “Partial agonist”.

Take `C[C@@H]1NC(=O)[C@H](CC(N)=O)NC(=O)[C@H](Cc2c[nH]c3ccccc23)NC(=O)[C@H](CCCNC(=N)N)NC(=O)[C@@H](Cc2ccccc2)NC(=O)[C@H](Cc2ccccc2)NC(=O)[C@@H](NC(=O)[C@@H](N)Cc2ccc(O)cc2)CC(=O)NC[C@@H](C(=O)N[C@@H](Cc2ccc(O)cc2)C(N)=O)NC(=O)[C@H](Cc2ccccc2)NC1=O` [SEQ ID NO: 29, Tyr-c[Asp-Phe-DPhe-Arg-Trp-Asn-Ala-Phe-Dpr]-Tyr] (H-YDF[dF]RWNAF[Dap]Y-NH2; lactam 2-10): at mMC3R, the Kb stood at 63.1 nM and the “pharmacology in words at mMC3R” value is “Partial agonist”.

`C[C@@H]1NC(=O)[C@H](CC(N)=O)NC(=O)[C@H](Cc2c[nH]c3ccccc23)NC(=O)[C@H](CCCNC(=N)N)NC(=O)[C@@H](Cc2ccc(I)cc2)NC(=O)[C@H](Cc2c[nH]cn2)NC(=O)[C@@H](NC(=O)[C@@H](N)Cc2ccc(O)cc2)CC(=O)NC[C@@H](C(=O)N[C@@H](Cc2ccc(O)cc2)C(N)=O)NC(=O)[C@H](Cc2ccccc2)NC1=O` [SEQ ID NO: 32, Tyr-c[Asp-His-(pI)DPhe-Arg-Trp-Asn-Ala-Phe-Dpr]-Tyr]: at mMC4R, the Kb came to 0.398 nM and the “pharmacology in words at mMC4R” value is given as “Partial agonist”. The Kb at mMC3R is 1.26 nM.

For `C[C@@H]1NC(=O)[C@H](CC(N)=O)NC(=O)[C@H](Cc2c[nH]c3ccccc23)NC(=O)[C@H](CCCNC(=N)N)NC(=O)[C@@H](Cc2ccc3ccccc3c2)NC(=O)[C@H](Cc2c[nH]cn2)NC(=O)[C@@H](NC(=O)[C@@H](N)Cc2ccc(O)cc2)CC(=O)NC[C@@H](C(=O)N[C@@H](Cc2ccc(O)cc2)C(N)=O)NC(=O)[C@H](Cc2ccccc2)NC1=O` [SEQ ID NO: 33, Tyr-c[Asp-His-DNal(2′)-Arg-Trp-Asn-Ala-Phe-Dpr]-Tyr], the figures for the Kb on mMC4R and on mMC3R were 0.501 nM and 5.01 nM, respectively. The “pharmacology in words at mMC4R” value at mMC4R is given as “Partial agonist”.

`C[C@@H]1NC(=O)[C@H](CC(N)=O)NC(=O)[C@H](Cc2c[nH]c3ccccc23)NC(=O)[C@H](CCCNC(=N)N)NC(=O)[C@@H](Cc2cccc3ccccc23)NC(=O)[C@H](Cc2c[nH]cn2)NC(=O)[C@@H](NC(=O)[C@@H](N)Cc2ccc(O)cc2)CC(=O)NC[C@@H](C(=O)N[C@@H](Cc2ccc(O)cc2)C(N)=O)NC(=O)[C@H](Cc2ccccc2)NC1=O` [SEQ ID NO: 34, Tyr-c[Asp-His-DNal(1′)-Arg-Trp-Asn-Ala-Phe-Dpr]-Tyr] registered an EC50 at mMC4R of 0.57 ± 0.08 nM.

For `C[C@@H]1NC(=O)[C@H](CC(N)=O)NC(=O)[C@H](Cc2c[nH]c3ccccc23)NC(=O)[C@H](CCCNC(=N)N)NC(=O)[C@@H](Cc2ccc(-c3ccccc3)cc2)NC(=O)[C@H](Cc2c[nH]cn2)NC(=O)[C@@H](NC(=O)[C@@H](N)Cc2ccc(O)cc2)CC(=O)NC[C@@H](C(=O)N[C@@H](Cc2ccc(O)cc2)C(N)=O)NC(=O)[C@H](Cc2ccccc2)NC1=O` [SEQ ID NO: 35, Tyr-c[Asp-His-DBip-Arg-Trp-Asn-Ala-Phe-Dpr]-Tyr], it took 0.57 ± 0.07 nM to reach a half-maximal effect on mMC4R (EC50).
